Where two headings read alike, the source gives them in different places.
Columns and labels:
Type in all cases: in vivo
Cochliobolus sativus = assay: Spot Blotch of Wheat (COCHSA), foliar spray, percent disease control; details: Bipolaris sorokiniana, read-out: COCHSA percent control
Colletotricum lagenarium = assay: Cucumber Anthracnose (COLLLA), foliar spray, percent disease control
[1] = system: DROSME, AEDSAE, LAPHEG, or HELIVI; assay: Insecticidal activity, active if any of DROSME, AEDSAE, LAPHEG or HELIVI was controlled at 80% or more; details: read-out: >80% mortality on any insect species @ 4000 ppm
[2] = system: Pseudoperonospora cubensis; assay: Cucumber Downy Mildew (PSPECU), foliar spray, percent disease control; details: read-out: PSPECU percent control

Row | Compound | pest or weed control at 200 µg/mL (Cochliobolus sativus; foliar) | pest or weed control at 200 µg/mL (Colletotricum lagenarium; foliar) | pest or weed control at 4000 ppm [1] | pest or weed control at 200 µg/mL ([2]; foliar) | pest or weed control at 200 µg/mL (Cochliobolus sativus; foliar spray) | pest or weed control at 200 µg/mL (Colletotricum lagenarium; foliar spray) | pest or weed control at 200 µg/mL ([2]; foliar spray)
1 | Fc1cc(C(F)(F)F)cnc1Oc1ccc(CCNc2ncnc3nccnc23)cc1 [Compound 54] | 0 to 49% | 80 to 100% | > 80% | 80 to 100% |  |  | 
2 | CC(F)(F)c1ccnc(Oc2ccc(CCNc3ncnc4nccnc34)cc2)c1 [Compound 44] | 0 to 49% | 50 to 79% | > 80% | 80 to 100% |  |  | 
3 | Cc1cc(Oc2ccc(C(F)(F)F)cn2)c(C)cc1CCNc1ncnc2nccnc12 [Compound 156] | 0 to 49% | 0 to 49% | > 80% | 80 to 100% |  |  | 
4 | COc1cc(CCNc2ncnc3nccnc23)ccc1Oc1cc(C(F)(F)F)ccn1 [Compound 51] | 0 to 49% | 50 to 79% | > 80% | 80 to 100% |  |  | 
5 | CCCOc1cc(CCNc2ncnc3nccnc23)ccc1Oc1cc(C(F)(F)F)ccn1 [Compound 188] | 0 to 49% | 80 to 100% | > 80% | 80 to 100% |  |  | 
6 | Cc1cnc(Oc2ccc(CCNc3ncnc4nccnc34)cc2)s1 [Compound 66] | 50 to 79% | 80 to 100% | > 80% | 80 to 100% |  |  | 
7 | Fc1cc(Oc2ccc(CCNc3ncnc4nccnc34)cc2)c(F)cn1 [Compound 108] | 0 to 49% | 0 to 49% | > 80% | 80 to 100% |  |  | 
8 | Fc1cc(C(F)(F)F)cnc1Oc1ccc(CCNc2ncnc3ncc(Cl)nc23)cc1 [Compound 118] | 0 to 49% | 0 to 49% | > 80% | 0 to 49% |  |  | 
9 | COc1cccc(Oc2ccc(CCNc3ncnc4nccnc34)cc2)n1 [Compound 10, {2-[4-(6-Methoxypyridin-2-yloxy)-phenyl]-ethyl}-pteridin-4-yl-amine] | 0 to 49% | 0 to 49% | > 80% | 80 to 100% |  |  | 
10 | Cc1cc(Oc2cc(C(F)(F)F)ccn2)ccc1CCNc1ncnc2nccnc12 [Compound 129] | 50 to 79% | 50 to 79% | > 80% | 80 to 100% |  |  | 
11 | CC1=CSc2cc(CCNc3ncnc4nccnc34)ccc2O1 [Compound 231] |  |  | > 80% |  | 0 to 49% | 0 to 49% | 0 to 49%
12 | O=C(c1ccc(Oc2ccc(CCNc3ncnc4nccnc34)cc2)nc1)C1CC1 [Compound 30] | 0 to 49% | 0 to 49% | > 80% | 50 to 79% |  |  | 
13 | c1cnc(Oc2ccc(CCNc3ncnc4nccnc34)cc2)cn1 [Compound 28] | 0 to 49% | 0 to 49% | > 80% | 80 to 100% |  |  | 
14 | Cc1cnc2ncnc(NCCc3ccc(Oc4ccc(C#N)cn4)cc3)c2n1 [Compound 52] | 0 to 49% | 0 to 49% | > 80% | 80 to 100% |  |  | 
15 | FC(F)(F)COc1cccc(Oc2ccc(CCNc3ncnc4nccnc34)cc2)n1 [Compound 11, Pteridin-4-yl-(2-{4-[6-(2,2,2-trifluoroethoxy)-pyridin-2-yloxy]-phenyl}-ethyl)-amine] | 0 to 49% | 0 to 49% | > 80% | 50 to 79% |  |  | 
16 | CCCOc1cc(CCNc2ncnc3nccnc23)ccc1Oc1cc(C(C)(F)F)ccn1 [Compound 199] | 0 to 49% | 0 to 49% | > 80% | 80 to 100% |  |  | 
17 | FC(F)(F)COc1ccnc(Oc2ccc(CCNc3ncnc4nccnc34)cc2)n1 [Compound 25] | 0 to 49% | 0 to 49% | > 80% | 80 to 100% |  |  | 
18 | FC(F)(F)c1cccc(Oc2ccc(CCNc3ncnc4nccnc34)cc2)n1 [Compound 6] | 0 to 49% | 0 to 49% | > 80% | 80 to 100% |  |  | 
19 | Cc1cc(CCNc2ncnc3nccnc23)ccc1Oc1cncc(Cl)c1C#N [Compound 142] | 0 to 49% | 0 to 49% | > 80% | 80 to 100% |  |  | 
20 | Cc1cc(Oc2cc(C(F)(F)F)ccn2)c(C)cc1CCNc1ncnc2nccnc12 [Compound 152] | 0 to 49% | 0 to 49% | > 80% | 80 to 100% |  |  | 
21 | Cc1nc2ncnc(NCCc3ccc(Oc4ncc(C(F)(F)F)cc4F)cc3)c2nc1C [Compound 163] | 0 to 49% | 80 to 100% | > 80% | 80 to 100% |  |  | 
22 | COc1cc(CCNc2ncnc3nccnc23)ccc1Oc1ccc(C(F)(F)F)cn1 [Compound 49] | 50 to 79% | 50 to 79% | > 80% | 80 to 100% |  |  | 
23 | CC(C)(C)OC(=O)c1ccnc(Oc2ccc(CCNc3ncnc4nccnc34)cc2)c1 [Compound 192] | 0 to 49% | 80 to 100% | > 80% | 80 to 100% |  |  | 
24 | Fc1c(F)c(C(F)(F)F)c(F)c(F)c1Oc1ccc(CCNc2ncnc3nccnc23)cc1 [Compound 112] | 0 to 49% | 0 to 49% | > 80% | 80 to 100% |  |  | 
25 | COc1ccnc(Oc2ccc(CCNc3ncnc4nccnc34)cc2)c1 [Compound 95] | 0 to 49% | 80 to 100% | > 80% | 80 to 100% |  |  | 
26 | Fc1cc(CCNc2ncnc3nccnc23)ccc1Oc1cc(C(F)(F)F)ccn1 [Compound 93] | 50 to 79% | 80 to 100% | > 80% | 80 to 100% |  |  | 
27 | Cc1cc(CCNc2ncnc3nccnc23)ccc1Oc1cc(C(C)(F)F)ccn1 [Compound 169] | 0 to 49% | 50 to 79% | > 80% | 80 to 100% |  |  | 
28 | COc1cc(CCNc2ncnc3nccnc23)ccc1Oc1cc(C(C)(F)F)ccn1 [Compound 170, (2-{4-[4-(1,1-difluoroethyl)-pyridin-2-yloxy]-3-methoxyphenyl}-ethyl)-pteridin-4-yl-amine] | 0 to 49% | 0 to 49% | > 80% | 80 to 100% |  |  | 
29 | Cc1cc(CCNc2ncnc3nccnc23)ccc1Oc1ccc(C(F)(F)F)cn1 [Compound 141] | 0 to 49% | 50 to 79% | > 80% | 80 to 100% |  |  | 
